Like-named read-outs stand apart in the source and are kept apart here.
What was measured:
Type in all cases: biochemical
B-Raf V600E = B-Raf V600E (Homo sapiens, UniProt P15056, V600E); assay: ELISA-based assay of inhibitory activity against B-Raf V600E (MEK to p-MEK); conditions: for inhibition at 10 µM: read-out: Inhibition Rate (at 10 μM)
wild type B-Raf = wild type B-Raf (Homo sapiens, UniProt P15056); assay: ELISA-based assay, wild type B-Raf
B-Raf T508A = target: T1, B-Raf T508A (Homo sapiens, UniProt P15056, T508A); assay: ELISA-based assay, single point mutant B-Raf T508A
T1 construct: B-RAFT508A and B-RAFS602A, residues 433–726; made in house; host or cells: Sf9 insect cells (pFastBac Dual)
T1 sequence (P15056 433-726 T508A): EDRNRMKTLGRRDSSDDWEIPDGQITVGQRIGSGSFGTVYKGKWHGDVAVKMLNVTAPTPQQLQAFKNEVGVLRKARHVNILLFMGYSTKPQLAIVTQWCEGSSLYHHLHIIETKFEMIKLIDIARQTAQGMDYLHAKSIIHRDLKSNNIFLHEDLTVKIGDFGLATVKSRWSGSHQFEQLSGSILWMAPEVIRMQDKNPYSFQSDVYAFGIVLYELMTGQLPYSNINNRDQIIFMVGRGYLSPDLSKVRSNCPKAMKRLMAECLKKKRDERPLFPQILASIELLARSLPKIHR
Excerpt: (§1) The mutant sequence of human BRAF kinase domain (B-RAFT508A and B-RAFS602A, residues 433–726) was inserted into the plasmid of pFastBacTM Dual. Then the recombinant plasmid was transported into the sf9 cells. Mutant protein was expressed and purified respectively.

B-Raf S602A = target: T2, B-Raf S602A (Homo sapiens, UniProt P15056, S602A); assay: ELISA-based assay, single point mutant B-Raf S602A
T2 construct: B-RAFT508A and B-RAFS602A, residues 433–726; made in house; host or cells: Sf9 insect cells (pFastBac Dual)
T2 sequence (P15056 433-726 S602A): as the sequence (P15056 433-726 T508A) above, with A76T, S170A counted along it
Excerpt: as §1

Chain of B-Raf V600E (P15056 whole entry V600E): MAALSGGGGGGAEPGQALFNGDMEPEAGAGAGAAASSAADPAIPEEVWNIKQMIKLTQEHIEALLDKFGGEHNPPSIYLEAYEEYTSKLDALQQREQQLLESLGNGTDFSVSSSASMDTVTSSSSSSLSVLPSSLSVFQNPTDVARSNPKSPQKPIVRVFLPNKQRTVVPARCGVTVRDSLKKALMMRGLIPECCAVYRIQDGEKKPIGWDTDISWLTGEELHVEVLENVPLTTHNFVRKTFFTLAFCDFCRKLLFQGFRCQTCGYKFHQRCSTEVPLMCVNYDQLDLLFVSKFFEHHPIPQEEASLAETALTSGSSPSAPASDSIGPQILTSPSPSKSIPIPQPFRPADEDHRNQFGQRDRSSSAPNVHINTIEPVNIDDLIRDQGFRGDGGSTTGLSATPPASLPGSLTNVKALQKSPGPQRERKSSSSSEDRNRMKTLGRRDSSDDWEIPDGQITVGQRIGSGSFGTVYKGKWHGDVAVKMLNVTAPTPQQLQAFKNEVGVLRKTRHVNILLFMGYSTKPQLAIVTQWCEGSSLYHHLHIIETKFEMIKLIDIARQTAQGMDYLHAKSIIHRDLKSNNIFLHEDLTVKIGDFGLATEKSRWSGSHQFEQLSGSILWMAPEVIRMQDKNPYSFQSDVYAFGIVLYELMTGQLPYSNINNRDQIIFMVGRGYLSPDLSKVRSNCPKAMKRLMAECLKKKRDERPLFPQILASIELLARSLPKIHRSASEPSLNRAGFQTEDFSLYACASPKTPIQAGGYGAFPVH
Chain of wild type B-Raf (P15056 whole entry): as the sequence (P15056 whole entry V600E) above, with E600V counted along it

CC1(C)C(C=C(Cl)Cl)C1C(=O)OC(C#N)c1cccc(Oc2ccccc2)c1 (centres unmarked) [cypermethrin]
activity against B-Raf V600E (in words) (B-Raf V600E; ELISA-based assay, 10 μM): inactive | inhibition at 10 µM (B-Raf V600E): 17.6%

CCCS(=O)(=O)Nc1ccc(F)c(C(=O)c2c[nH]c3ncc(-c4ccc(Cl)cc4)cc23)c1F [vemurafenib]
inhibition at 10 µM (B-Raf V600E; B-Raf V600E, 10 μM): 82.9%

O=C(Nc1ccc(Oc2ccc(Cl)cc2)c(Cl)c1)c1cc(I)cc(I)c1O [rafoxanide]
IC50 (B-Raf V600E): 0.07 µM | inhibition at 10 µM (B-Raf V600E): 73.2% | IC50 (wild type B-Raf): 1.94 µM | IC50 (B-Raf T508A): 15.7 µM | IC50 (B-Raf S602A): 11.4 µM

Cc1cc(C(C#N)c2ccc(Cl)cc2)c(Cl)cc1NC(=O)c1cc(I)cc(I)c1O (centres unmarked) [closantel]
IC50 (B-Raf V600E; B-Raf V600E, read-out: IC50 B-RAF V600E): 1.9 µM | inhibition at 10 µM (B-Raf V600E): 83.9% | IC50 (wild type B-Raf; wild type B-Raf, read-out: IC50 B-RAF WT): 1.89 µM | IC50 (B-Raf T508A; B-Raf T508A mutant, read-out: IC50 B-RAF T508A): 5.97 µM | IC50 (B-Raf S602A; B-Raf S602A mutant, read-out: IC50 B-RAF S602A): 6.35 µM

CCCS(=O)(=O)Nc1ccc(F)c(C(=O)c2c[nH]c3ncc(Cl)cc23)c1F [PLX4720]
inhibition at 10 µM (B-Raf V600E; B-Raf V600E, 10 μM): 82.5%

Source: PMC4977465, “Repositioning organohalogen drugs: a case study for identification of potent B-Raf V600E inhibitors via docking and bioassay” (Scientific Reports, 2016)
